Experimental data taken from patent US5354862A, “Preparation and the use of halopropargylated cyclic quaternary ammonium compounds as antimicrobial agents” (Rohm and Haas Company, priority 1993, dated 1994).
Where two headings read alike, the source gives them in different places.

Experiments:
Assay in all cases: Broth two-fold serial dilution MIC test
Pseudomonas aeruginosa = type: cell-based, Pseudomonas aeruginosa (ATCC 15442); settings: Table 2, Psae
Summary of the method: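 Broth two-fold serial dilution MIC (500 to 0.25 ppm) was run against Pseudomonas aeruginosa, with compound from 1% stock in acetone/methanol/water 5:3:2. Vessels inoculated with standardized broth-grown cells were incubated, then scored for growth. MIC is the lowest concentration giving complete growth inhibition.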

Escherichia coli = type: cell-based, Escherichia coli (ATCC 11229); settings: Table 2, Ecol
Summary of the method: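 Broth two-fold serial dilutions ran from 500 down to 0.25 ppm, prepared from a stock in acetone/methanol/water (5:3:2). Each tube received a standardized bacterial suspension and was incubated at a temperature suited to the species. MIC is the lowest concentration giving complete growth inhibition.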

Staphylococcus aureus = type: cell-based, Staphylococcus aureus (ATCC 6538); settings: Table 2, Saur
Summary of the method: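 Broth two-fold serial dilution from 500 ppm down to 0.25 ppm, compound delivered from acetone/methanol/water stock, inoculated with standardized cell suspension and incubated at an organism-appropriate temperature. MIC is the lowest concentration giving complete growth inhibition.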

Aspergillus niger = type: cell-based, Aspergillus niger (ATCC 6275); settings: Table 2, Anig, TSB media
Summary of the method: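 Two-fold broth serial dilution from 500 ppm down to 0.25 ppm, compound stock in acetone/methanol/water 5:3:2. Vessels inoculated with standardized spore suspension harvested from agar slants, incubated at a species-appropriate temperature, then scored for growth/no growth. MIC is the lowest concentration giving complete growth inhibition.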

[1] = Pseudomonas aeruginosa, M9G media, read-out: MIC
[2] = Escherichia coli, M9G media, read-out: MIC
[3] = Escherichia coli, TSB media, read-out: MIC
[4] = Pseudomonas aeruginosa, TSB media, read-out: MIC
[5] = Staphylococcus aureus, M9G media, read-out: MIC
[6] = Staphylococcus aureus, TSB media, read-out: MIC
[7] = Aspergillus niger, read-out: MIC

Row | MIC (Pseudomonas aeruginosa; M9G media) | MIC (Pseudomonas aeruginosa; TSB media) | MIC (Escherichia coli; M9G media) | MIC (Escherichia coli; TSB media) | MIC (Staphylococcus aureus; M9G media) | MIC (Staphylococcus aureus; TSB media) | MIC (Aspergillus niger) | MIC (Pseudomonas aeruginosa; [1]) | MIC (Escherichia coli; [2]) | MIC (Escherichia coli; [3]) | MIC (Pseudomonas aeruginosa; [4]) | MIC (Staphylococcus aureus; [5]) | MIC (Staphylococcus aureus; [6]) | MIC (Aspergillus niger; [7]) | SMILES
1 | 32 ppm | 125 ppm | 4 ppm | 16 ppm | < 0.25 ppm | < 0.25 ppm | < 0.25 ppm |  |  |  |  |  |  |  | CCCCCCCCCCCCCCCC[N+]1(CC#CI)CCCC1 [Compound 32, 1-hexadecyl-1-(3-iodopropargy)-pyrrolidinium benzenesulfonate]
2 |  | 125 ppm |  |  | 2 ppm | 4 ppm | 2 ppm | 64 µg/mL | 2 µg/mL | 4 µg/mL |  |  |  |  | CCCCCCCCCCCCOC(=O)C[N+]1(CC#CI)CCCC1 [Compound 63, 1-(dodecyloxycarbonyl)methyl-1-(3-iodopropargyl)-pyrrolidinium 4-methylbenzenesulfonate]
3 |  |  |  |  |  |  |  | 16 µg/mL | 2 µg/mL | 8 µg/mL | 64 µg/mL | 1 µg/mL | 2 µg/mL | 8 µg/mL | CCCCCCCCCCCCC[N+]1(CC#CI)CCOCC1 [Compound 89, 4-tridecyl-4-(3-iodopropargyl)-morpholinium methanesulfonate]
4 |  |  |  |  |  |  |  | 16 µg/mL | 2 µg/mL | 4 µg/mL | 125 µg/mL | 2 µg/mL | 4 µg/mL | 16 µg/mL | CCCCCCCCCCCC[N+]1(CC#CI)CCOCC1 [Compound 90, 4-dodecyl-4-(3-iodopropargyl)-morpholinium methanesulfonate]
5 | 32 ppm | 32 ppm | 1 ppm | 16 ppm | 0.5 ppm | < 0.25 ppm | 1 ppm |  |  |  |  |  |  |  | CCCCCCCCCCCCC[N+]1(CC#CI)CCCC1 [Compound 31, 1-tridecyl-1-(3-iodopropargyl)-pyrrolidinium benzenesulfonate]
6 | 32 ppm | 32 ppm | 1 ppm | 4 ppm | 0.25 ppm | 0.25 ppm | 8 ppm |  |  |  |  |  |  |  | CCCCCCCCCCCCOC(=O)C[N+]1(CC#CI)CCCC1 [Compound 64, 1-(dodecyloxycarbonyl)methyl-1-(3-iodopropargyl)-pyrrolidinium benzenesulfonate]
7 |  |  |  |  |  |  |  | 250 µg/mL |  | 250 µg/mL | 125 µg/mL | 16 µg/mL | 32 µg/mL | 250 µg/mL | OCC[N+]1(CC#CI)CCCCC1 [Compound 18, 1-(2-hydroxyethyl)-1-(3-iodopropargyl)-piperidinium 4-methylbenzenesulfonate]
8 | 8 ppm | 63 ppm | < 0.25 ppm | < 0.25 ppm | < 0.25 ppm | < 0.25 ppm | < 0.25 ppm |  |  |  |  |  |  |  | CCCCCCCCCCCCCC[N+]1(CC#CI)C=NCC1.O=S(=O)([O-])c1ccccc1 (centres unmarked) [Compound 56, 1-(tetradecyl)-1-(3-iodopropargyl)-imidazolinium benzenesulfonate]
9 |  |  |  |  |  |  |  | 0.5 µg/mL | < 0.25 µg/mL | 0.5 µg/mL | 4 µg/mL | < 0.25 µg/mL | < 0.25 µg/mL | 0.5 µg/mL | CCCCCCCCCCCCCC[N+]1(CC#CI)CCSCC1 [Compound 57, 4-(tetradecyl)-4-(3-iodopropargyl)-thiomorpholinium benzenesulfonate]
10 | 63 ppm | 63 ppm | 1 ppm | 2 ppm | < 0.25 ppm | < 0.25 ppm | 0.5 ppm |  |  |  |  |  |  |  | CCCCCCCCCCCCCC[N+]1(CC#CI)CCCC1 [Compound 39, 1-tetradecyl-1-(3-iodopropargyl)-pyrrolidinium methanesulfonate]
11 | 8 ppm | 8 ppm | 2 ppm | 2 ppm | < 0.25 ppm | < 0.25 ppm | 0.5 ppm |  |  |  |  |  |  |  | CCCCCCCCCCCCCCCC[N+]1(CC#CI)CC(C)OC(C)C1 (centres unmarked) [Compound 47, 4-hexadecyl-4-(3-iodopropargyl)-2,6-dimethylmorpholinium benzenesulfonate]
12 | 16 ppm | 125 ppm | 2 ppm | 8 ppm | 0.5 ppm | 0.5 ppm | 1 ppm |  |  |  |  |  |  |  | CCCCCCCCCCCCCCCC[N+]1(CC#CI)CCCC1 [Compound 80, 1-hexadecyl-1-(3-iodopropargyl)-pyrrolidinium bromide]
13 | 125 ppm | 250 ppm | 2 ppm | 8 ppm | 1 ppm | 2 ppm | 32 ppm |  |  |  |  |  |  |  | CCCCCCCCCCOC(=O)C[N+]1(CC#CI)CCCC1 [Compound 70, 1-(decyloxycarbonyl)methyl-1-(3-iodopropargyt)-pyrrolidinium benzenesulfonate]
14 |  |  |  |  |  |  |  | 500 µg/mL | 250 µg/mL | 125 µg/mL | 500 µg/mL | 16 µg/mL | 16 µg/mL | 250 µg/mL | CCCCCC[N+]1(CC#CI)CCCC1 [Compound 14, 1-hexyl-1-(3-iodopropargyl)-pyrrolidinium 4-methylbenzenesulfonate]
15 | 125 ppm | 125 ppm | 4 ppm | 16 ppm | 1 ppm | 8 ppm | 1 ppm |  |  |  |  |  |  |  | CCCCCCCCCCCCCC[N+]1(CC#CI)CCCCC1C (centres unmarked) [Compound 55, 1-(tetradecyl)-1-(3-iodopropargyl)-2-methylpiperidinium methanesulfonate]
16 |  |  |  |  |  |  |  | 2 µg/mL | < 0.25 µg/mL | 0.5 µg/mL | 4 µg/mL | < 0.25 µg/mL | 0.5 µg/mL | 1 µg/mL | CCCCCCCCCCCCCC[N+]1(CC#CI)CC(C)OC(C)C1 (centres unmarked) [Compound 43, 4-tetradecyl-4-(3-iodopropargyl)-2,6-dimethylmorpholinium 4-methylbenzenesulfonate]
17 |  |  |  |  |  |  |  | > 500 µg/mL | 32 µg/mL | 64 µg/mL | > 500 µg/mL | 8 µg/mL | 16 µg/mL | 125 µg/mL | CCCCCCCC[N+]1(CC#CI)CCOCC1 [Compound 92, 4-n-octyl-4-(3-iodopropargyl)-morpholinium methanesulfonate]
18 | 250 ppm | 125 ppm | 8 ppm | 16 ppm | 1 ppm | 8 ppm | 1 ppm |  |  |  |  |  |  |  | CCCCCCCCCCCCCC[N+]1(CC#CI)CCCCC1C (centres unmarked) [Compound 54, 1-(tetradecyl)-1-(3-iodopropargyl)-2-methylpiperidinium 4methylbenzenesulfonate]
19 | 63 ppm | 250 ppm | 2 ppm | 16 ppm | 1 ppm | 2 ppm | 16 ppm |  |  |  |  |  |  |  | CCCCCCCCCCCCCCCC[N+]1(CC#CI)CCCCC1 [Compound 60, 1-hexadecyl-1-(3-iodopropargyl)-piperidinium benzenesulfonate]
20 |  |  |  |  |  |  |  | 32 µg/mL | 2 µg/mL | 8 µg/mL | 64 µg/mL | 0.5 µg/mL | 2 µg/mL | 16 µg/mL | CCCCCCCCCCCCOC(=O)C[N+]1(CC#CI)CCOCC1 [Compound 68, 4-(dodecyloxycarbonyl)methyl-4-(3-iodopropargyl)-morpholinium 4-methylbenzenesulfonate]
21 |  | 16 ppm |  | 4 ppm |  | 1 ppm |  | 16 µg/mL | 2 µg/mL |  |  | 0.5 µg/mL |  | 1 µg/mL | CCCCCCCCCCCCC[N+]1(CC#CI)CCCC1 [Compound 8, 1-tridecyl-1-(3-iodopropargyl)-pyrrolidinium 4-methylbenzenesulfonate]

Row | SMILES | MIC (Pseudomonas aeruginosa; M9G media) | MIC (Pseudomonas aeruginosa; TSB media) | MIC (Escherichia coli; M9G media) | MIC (Escherichia coli; TSB media) | MIC (Staphylococcus aureus; M9G media) | MIC (Staphylococcus aureus; TSB media) | MIC (Aspergillus niger) | MIC (Pseudomonas aeruginosa; [1]) | MIC (Escherichia coli; [2]) | MIC (Escherichia coli; [3]) | MIC (Pseudomonas aeruginosa; [4]) | MIC (Staphylococcus aureus; [5]) | MIC (Staphylococcus aureus; [6]) | MIC (Aspergillus niger; [7])
22 | CCCCCCCCCCCCCC[N+]1(CC#CI)CCOCC1 [Compound 72, 4-tetradecyl-4-(3-iodopropargyl)-rnorpholinium iodide] | 16 ppm | 64 ppm | 0.5 ppm | 4 ppm | 0.25 ppm | 0.25 ppm | 4 ppm |  |  |  |  |  |  | 
23 | CCCCCCCCCCCCCC[N+]1(CC#CI)CCOCC1 [Compound 28, 4-tetradecyl-4-(3-iodopropargyl)-morpholinium 4-methylbenzenesulfonate] | 4 ppm | 4 ppm | 1 ppm | 2 ppm |  | 0.25 ppm | 8 ppm |  |  |  |  | 0.25 µg/mL |  | 
24 | CCCCCCCCCCCCCC[N+]1(CC#CI)CCCCC1 [Compound 62, 1-tetradecyl-1-(3-iodopropargyl)-piperidinium methanesulfonate] | 16 ppm | 63 ppm | 2 ppm | 4 ppm | 0.25 ppm | 0.25 ppm | 0.25 ppm |  |  |  |  |  |  | 
